Experimental data published in patent US7629315B2, “Compositions for blocking the inhibitory effect of human CRP on human leptin” (University of Pittsburgh of the Commonwealth System of …, priority 2005, dated 2009).
Entries after “also recorded” stand apart in the source; their conditions may differ. Read-outs that look alike come from different tables or passages of the source.

Assays:
human leptin [1] = biological target: T1, human leptin (Homo sapiens, UniProt P41159); assay: IC50 for human CRP against human leptin (125I-leptin binding to OBR-expressing HEK293 cells); details: in the presence of about 2 ng/ml human leptin
T1 sequence (P41159 22-167): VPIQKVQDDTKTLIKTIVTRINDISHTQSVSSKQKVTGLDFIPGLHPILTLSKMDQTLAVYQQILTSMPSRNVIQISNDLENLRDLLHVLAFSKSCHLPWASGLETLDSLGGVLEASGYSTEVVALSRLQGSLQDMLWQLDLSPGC
Description: 4. Measurement of IC50 for human CRP against human leptin: Human leptin was iodinated with Na^125I using the lodogen method. Briefly, 15 μg of human leptin in 100 mM Phosphate buffer pH 7.5 were incubated with 1 mCi of carrier-free Na^125I (2200 Ci/mmol) in a glass tube containing 50 μg Iodogen. After 10 minute incubation at room temperature, the reaction was stopped with 100 μl 0.1% trifluoroacetic acid (TFA). The reaction mixture was immediately purified by reverse-phase HPLC. The separation employed a 5 minute isocratic step at 20% eluant B in A, followed by two consecutive 30 minute linear gradients from 20 to 50%, then from 50 to 60% eluant B in A (where eluant A is water containing 0.1% TFA and eluant B is acetonitrile containing 0.1% TFA) at a flow rate of 1.5 ml/min. The ^125I-labeled leptin (˜2 ng/ml) was pre-incubated with various concentrations of human CRP in 1 ml of μ-MEM for 30 minute before added to the OBR-expressing HEK293 cells. The incubation would last for 3 hours at 4° C. before the media was aspirated and the cells were dissolved in 0.1N NaOH for scintillation counting.
To examine if human CRP interferes with the binding of human leptin to its receptors, we used a HEK293 cell line stably transfected with the long-form human leptin receptor, OB-Rb. The characterization of this cell line has been reported in earlier studies. M. Friedman-Einat et al., 2003, Regul. Pept. […]

mouse leptin = mouse leptin (Mus musculus, UniProt P41160); assay: IC50 for human CRP against mouse leptin (leptin binding to OB-Rb HEK293 cells); details: in the presence of about 2 ng/ml mouse leptin
Sequence of mouse leptin (P41160 22-167): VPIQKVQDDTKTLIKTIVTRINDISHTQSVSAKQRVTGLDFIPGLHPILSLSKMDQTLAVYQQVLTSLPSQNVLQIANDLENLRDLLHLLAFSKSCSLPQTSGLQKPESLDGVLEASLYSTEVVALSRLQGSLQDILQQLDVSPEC

[2] = test system: leptin-induced tyrosine phosphorylation of STAT3; assay: Leptin-induced STAT3 tyrosine phosphorylation in HEK293 cells expressing OB-Rb (western blot), human leptin; type: cell-based; details: for effect on leptin-induced tyrosine phosphorylation of STAT3: human leptin 2 nM, protein pre-incubated with leptin, HEK293 OB-Rb cells
Description: (§1) 2. Signaling Studies: A HEK293 cell line stably expressing the human long-form receptor, OB-Rb (M. Friedman-Einat et al., 2003, Regul. Pept. 111, 77) was serum starved for 2-h before addition of leptin and CRP. Leptin (SEQ ID NO:4), in the presence or absence of C-reactive proteins, was pre-incubated in μ-MEM for 30 minutes at 37° C. before applied to the cells. After a 30-incubation with leptin (SEQ ID NO:4), the cells were harvested in a previously described protein lysis buffer. A. Z. Zhao et al., 1997, Proc. Natl. Acad. Sci. U.S.A. 94, 322. The protein extract was subjected to a western blot assay with an anti-phospho-STAT3 specific antibody (Cell Signaling, Beverly, Mass.). For studies involving the primary hypothalamic neurons, the rat hypothalamus was surgically isolated right after euthanasia, and immediately placed in the DMEM for incubation with leptin in the presence or absence of CRP.
(§2) To determine if the interaction between CRP and leptin influences cellular actions of leptin, we assessed the ability of leptin to stimulate tyrosine phosphorylation of STAT3 and PI3-kinase activity in the presence of CRP in vitro.

[3] = test system: mouse leptin-induced STAT3 activation; assay: Leptin-induced STAT3 tyrosine phosphorylation in HEK293 cells expressing OB-Rb, mouse leptin; type: cell-based; details: murine leptin 2 nM
Description: as §1, §2

[4] = test system: leptin signaling in rat primary hypothalamic neurons; assay: Leptin signaling (phospho-STAT3 and PI3-kinase assays) in rat primary hypothalamic neurons; type: cell-based; details: human leptin, rat primary hypothalamic ex-plants
Description: as §1
Previous studies have reported a requirement of both JAK-STAT and PI3-kinase pathways in mediating leptin signaling within the hypothalamus. C. Vaisse et al., 1996, Nat. Genet. 14, 95; A. Z. Zhao et al., 2002, Nat. Neurosci. 5, 727; K. D. Niswender et al., 2001, Nature 413, 794. The effects of human CRP on leptin signaling in rat primary hypothalamic ex-plants were also tested (FIG. 4D).

[5] = test system: human IL6-stimulated tyrosine phosphorylation of STAT3; assay: IL6-stimulated STAT3 phosphorylation in human primary hepatocytes (specificity control); type: cell-based
[6] = test system: insulin-stimulated PI3-kinase; assay: Insulin-stimulated PI3-kinase activity in differentiated 3T3-L1 adipocytes (specificity control); type: cell-based
ob/ob mice = assay: Infusion of human CRP and/or human leptin by osmotic pumps into ob/ob mice; type: in vivo, mouse; details: for body weight / food-intake: human CRP alone, without co-infusion of leptin; for effect on leptin-regulated body weight / effect on leptin-regulated food-intake: 6 days
Description: 3(a). In vivo assessment of CRP functions: The micro-osmotic pumps (#1007D, DURECT, Cupertino, Calif.) were subcutaneously imbedded in the ob/ob or wild-type mice according to the instructions of the manufacturer. The osmotic pumps were pre-filled with saline, CRP, leptin or leptin plus CRP. Food-intake (24-h), body weight, and body temperature were monitored daily post-surgery. Blood glucose concentrations were measured from the tail-vein blood samples right before and at the end of infusion with a Precision Plus glucose meter (Medisense, Abbot Park, Ill.).
(§3) 3(b) Assessment of serum leptin insulin, and CRP: Human- and mouse-leptin concentrations were measured with the ELISA kit from CHEMICON (Temecular, Calif.) and R&D Systems (Minneapolis, Minn.), respectively, according to the instructions of the manufacturer. Serum mouse insulin concentrations were determined with an ELISA assay (LINCO Research, St. Charles, Mo.). Human CRP concentrations were also evaluated with an ELISA kit (Alpha Diagnostics International, San Antonio, Tex.).
3(c) Measurement of serum- and tissue-triglycerides: Serum- and tissue-triglycerides were determined with the protocols described in J. N. Huan et al., 2003, J. Biol. Chem. 278, 45638. […]

[7] = Serum levels of infused human CRP and human leptin in ob/ob mice (ELISA); type: in vivo, mouse
Description: as §3

human leptin [8] = biological target: T1, human leptin; assay: Immunoprecipitation of human CRP with human leptin; type: binding; details: leptin/CRP mixture and human serum
Description: Direct binding of […] and leptin in an immunoprecipitation assay was determined. Rat CRP was purified from fresh rat serum to >95% employing a previously established affinity-purification protocol. J. Tseng et al., 1988, Mol. Immunol. 25, 679. This purity is very similar to the human CRP preparation obtained from a commercial source (CHEMICON International). The purified human- and rat-CRP proteins were pre-mixed with recombinant human and mouse leptin, respectively, before addition of specific antibodies against human- and mouse-leptin. The concentrations of CRP and leptin in the precipitation reaction were all within the physiological ranges (M. B. Schulze et al., 2004, Diabetes Care 27, 889; T. Kazumi et al., 2003, Metabolism 52, 1113).
In parallel experiments, recombinant leptin was also pre-mixed with human- or rat serum to allow for potential direct interactions prior to immunoprecipitation. The precipitation pellets obtained were subjected to western blot assays with specific anti-CRP antibodies. […] Because of the similarities between rat CRP and human CRP in the binding to leptin and of our main interest in the relevance to human obesity, focus was placed on potential functional effects of human CRP in the subsequent experiments.

[9] = human CRP high dosage 40 μg/day co-infused with human leptin
[10] = human CRP high dosage co-infused with leptin
[11] = human CRP low dosage 10 μg/day co-infused with human leptin

IC50 of CRP for reduction of 125I-labeled human leptin binding to its receptors (human leptin [1]): approximately 80 ng/ml | IC50 of human CRP towards mouse leptin (mouse leptin): greater than 64 μg/ml | direct binding to human leptin (immunoprecipitation with anti human-leptin, anti-CRP western blot) (human leptin [8]): could pull down human CRP
Substance: human CRP: human C-reactive protein preparation obtained from a commercial source (CHEMICON International)
calcium dependence of attenuation of leptin signaling ([2]; excess EGTA added to the incubation medium): requires the presence of calcium ions | effect on leptin-induced tyrosine phosphorylation of STAT3 [2]: attenuate the tyrosine-phosphorylation of STAT3; also recorded: Attenuating effects; also recorded: caused the reduction of leptin-stimulated STAT3 activation | effect on leptin-induced tyrosine phosphorylation of STAT3 ([2]; listed as Human CRP): suppressed the activation of STAT3 by leptin | effect on mouse leptin-induced STAT3 phosphorylation [3]: less efficient in blocking the signaling capacity of mouse leptin; also recorded: unable to block leptin-induced STAT3 activation | effect on leptin signaling (phospho-STAT3 and PI3-kinase) [4]: inhibited leptin signaling in primary hypothalamic neurons | effect on IL6-stimulated tyrosine phosphorylation of STAT3 [5]: did not suppress IL-6 induced activation of STAT3 | effect on IL6-stimulated tyrosine phosphorylation of STAT3 ([5]; listed as Human CRP): does not affect human IL6-stimulated tyrosine phosphorylation of STAT3 | effect on insulin-stimulated PI3-kinase activity [6]: did not suppress; also recorded: does not affect insulin-stimulated PI3-kinase activity | leptin-stimulated STAT3 activation in hypothalamic tissues (ob/ob mice; high dose CRP co-infused with leptin): blocked by co-infusion of CRP with leptin | body weight (ob/ob mice): did not affect food-intake or body weight | food-intake (ob/ob mice): did not affect food-intake or body weight | body weight (ob/ob mice; listed as CRP): does not influence food-intake and body-weight | food-intake (ob/ob mice; listed as CRP): does not influence food-intake and body-weight | effect on leptin-regulated body weight (ob/ob mice; [9]): completely blocked the actions of leptin to restrain appetite and induce weight loss; also recorded: completely blocked the effects of leptin | effect on leptin-regulated food-intake (ob/ob mice; [9]): completely blocked the actions of leptin to restrain appetite and induce weight loss; also recorded: completely blocked the effects of leptin | effect on leptin-regulated rectal temperature (ob/ob mice; human CRP high dosage co-infused with human leptin): attenuation of leptin-induced energy expenditure; also recorded: completely blocked the effects of leptin on rectal temperature | effect on leptin-induced change in blood glucose (ob/ob mice; [10]): blocked these effects of leptin; also recorded: completely blocked leptin-induced beneficial effects | effect on leptin-induced change in hepatic triglycerides (ob/ob mice; [10]): blocked these effects of leptin; also recorded: completely blocked leptin-induced beneficial effects | effect on leptin-induced change in serum insulin (ob/ob mice; [10]): blocked these effects of leptin; also recorded: completely blocked leptin-induced beneficial effects | effect on leptin-induced change in serum triglycerides (ob/ob mice; [10]): blocked these effects of leptin; also recorded: completely blocked leptin-induced beneficial effects | effect on leptin-regulated body weight (ob/ob mice; [11]): only partially attenuated these effects of human leptin; also recorded: only partially blocked leptin's effect | effect on leptin-regulated food-intake (ob/ob mice; [11]): only partially attenuated these effects of human leptin; also recorded: only partially blocked leptin's effect | serum concentration of human CRP ([7]; end of infusion, human CRP 48 μg/day/mouse): 850 ± 100 ng/mL | serum concentrations of human CRP attained ([7]; human CRP infused at 10 or 40 μg/day): well within the physiological range observed in human plasma
